In patent US4340543A, “Sulfonium compounds” (Taiho Pharmaceutical Company Limited, priority 1980, dated 1982):

How the values were obtained:
[1] = test system: sarcoma 180 cells; test: Antitumor activity on sarcoma 180 (tumor weight, i.v.); format: in vivo, male ICR mice; conditions: 10 consecutive days, day 17
Description: (2) antitumor activity on sarcoma 180
(§1) Ten male ICR mice in each group, weighing 30-35 g, were subcutaneously inoculated with 5×10^5 sarcoma 180 cells. A solution of the compound in physiological saline was injected intravenously at the dose shown in Table 5 below once a day for 10 consecutive days starting with the next day of the tumor inoculation. Seventeen days after the tumor inoculation, mice were sacrificed, and tumors were weighed.

[2] = Acute toxicity test (up-down method, i.v.); conditions: mouse, in vivo, iv, male ddy mice
Description: Male ddy mice weighing 20 g were used. A solution of the compound in physiological saline was injected intravenously. The dose lethal to 50% of mice was determined by the up-down method.

[3] = test system: delayed hypersensitivity response; test: Effect on a cell-mediated response (picryl chloride delayed hypersensitivity, ear swelling, oral); format: in vivo, male BALB/C mice; conditions: for Increase relative to control group (ear swelling) / Increase of swelling (× 10^-4): 7 days; for Increase of swelling (× 10^-4): 24 hours after challenge; for effect on the delayed hypersensitivity response (in words): oral, Table 8 doses
Description: (5) Effect on a cell-mediated response
Ten male BALB/C mice in each group, weighing in 20-25 g, were used. Mice were immunized by applying the skin of the clipped abdomen with 0.1 ml of 7% picryl chloride in absolute alcohol on day 0, and challenge was with 0.02 ml of 1% picryl chloride in olive oil applied to the ear on day 7. The ear was measured again 24 hours later by a dial thickness gauge. A solution of the compound in water was orally administered at the dose shown in Table 8 below daily for seven consecutive days starting with day 1.

[4] = test system: transplantable fibrosarcoma induced by 3-methylcholanthrene; test: Antitumor activity on a 3-methylcholanthrene-induced transplantable tumor (tumor weight, i.v.); format: in vivo, male C57BL/6 mice; conditions: every other day 5 times, day 21
Description: (3) Antitumor activity on a 3-methylcholanthrene-induced transplantable tumor.
Ten male C57BL/6 mice in each group weighing 20-25 g were subcutaneously inoculated with 5×10^4 or 1×10^5 cells of transplantable fibrosarcoma, which was induced in C57BL/6 strain by 3-methylcholanthrene and maintained syngenetically in ascites form. A solution of the compound in physiological saline was injected intravenously at the dose shown in Table 6 below every other day 5 times, starting with the next day of the tumor inoculation. Twenty-one days after the tumor inoculation, mice were sacrificed and tumors were weighed.

[5] = test system: Meth-A cells; test: Antitumor activity on a syngenic Meth-A tumor (tumor weight, i.v.); format: in vivo, male BALB/C mice; conditions: 7 consecutive days, day 17
Description: (1) Antitumor activity on a syngenic Meth-A tumor.
as §1, with “BALB/C” for “ICR”, “25-30” for “30-35”, “2×10^4 Meth-A” for “5×10^5 sarcoma 180”, “4” for “5”, “for” for “for 10”, “consecutive 7” for “consecutive”
Growth inhibition was assessed, tumor weight in the treated mice divided by tumor weight in the control mice.

[6] = test system: spleen hemolytic plaque forming cells; test: Effect on humoral response (hemolytic plaque forming cells, sheep red blood cells, i.p.); format: in vivo, male BALB/C mice; conditions: for Increase (hemolytic plaque forming cells vs saline control) / Cell count/spleen (hemolytic plaque forming cells): day 0 to 4; for Cell count/spleen (hemolytic plaque forming cells): counted day 5
Description: (4) Effect on humoral response
Ten male BALB/C mice in each group, weighing 25-30 g, were intravenously injected with 1×10^7 sheep red blood cells on day 0. A solution of the compound in physiological saline was injected intraperitoneally at the dose shown in Table 7 below from day 0 to day 4.
On day 5, spleen hemolytic plaque forming cells were counted by the technique of Jerne et al (Science, 140, 405, 1963) modified by Cunningham et al (Immunology, 14, 599, 1968).

[7] = 3 mg/kg/day i.v., cell count 1 × 10^5

## C[S+](C)CC1CCCCO1 (centres unmarked) [Compound 50, methylene(tetrahydro-2-pyranyl)dimethylsulfonium p-toluenesulfonate]
[1]; 3.0 mg/kg/day i.v.
  Inhibition (sarcoma 180 growth): 73.3%
[2]
  LD50: 135 mg/kg

## C[S+](CCOC(=O)c1ccccc1)CC1CCCO1 (centres unmarked) [Compound 27]
[1]; 0.4 mg/kg/day i.v.
  Inhibition (sarcoma 180 growth): 75.7%
[2]
  LD50: 94 mg/kg

## C[S+](C)CC1CCCO1 (centres unmarked) [Compound 1, methylene(tetrahydro-2-furanyl)dimethylsulfonium p-toluenesulfonate]
[3]; 20 mg/kg/day oral
  Increase relative to control group (ear swelling): -3.4%
  Increase of swelling (× 10^-4): 34.2 ± 6.0 × 10^-4
[3]; 100 mg/kg/day oral
  Increase relative to control group (ear swelling): 43.5%
  Increase of swelling (× 10^-4): 50.8 ± 13.4 × 10^-4
[3]; 500 mg/kg/day oral
  Increase relative to control group (ear swelling): 11.0%
  Increase of swelling (× 10^-4): 39.3 ± 9.8 × 10^-4
[3]
  effect on the delayed hypersensitivity response (in words): augment the delayed hypersensitivity response
[4]; 10 mg/kg/day i.v., cell count 5 × 10^4
  Inhibition (fibrosarcoma growth): 71.5%
[5]; 0.8 mg/kg/day i.v.
  Inhibition (Meth-A tumor growth): 39.9%
[5]; 4.0 mg/kg/day i.v.
  Inhibition (Meth-A tumor growth): 63.9%
[6]; 2.5 mg/kg/day i.p.
  Increase (hemolytic plaque forming cells vs saline control): 52.6%
  Cell count/spleen (hemolytic plaque forming cells): 322 ± 75.2
[6]; 10 mg/kg/day i.p.
  Increase (hemolytic plaque forming cells vs saline control): 35.1%
  Cell count/spleen (hemolytic plaque forming cells): 285 ± 113.5
[6]; 40 mg/kg/day i.p.
  Increase (hemolytic plaque forming cells vs saline control): 85.8%
  Cell count/spleen (hemolytic plaque forming cells): 392 ± 91.4
[6]; at the doses of 2.5 mg/kg and 40 mg/kg, i.p.
  increase in the number of hemolytic plaque forming cells (in words): significant increases
[1]; 0.8 mg/kg/day i.v.
  Inhibition (sarcoma 180 growth): 66.4%
[2]
  LD50: 130 mg/kg

## C[S+](C)CCCC1CCCO1 (centres unmarked) [Compound 46]
[5]; 0.2 mg/kg/day i.v.
  Inhibition (Meth-A tumor growth): 58.1%
[2]
  LD50: 13.2 mg/kg

## CCCC[S+](C)CC1CCCO1 (centres unmarked) [Compound 12]
[4]; [7]
  Inhibition (fibrosarcoma growth): 44.3%
[2]
  LD50: 90 mg/kg

## C[S+](C)CCC1CCCCO1 (centres unmarked) [Compound 58]
[5]; 2.0 mg/kg/day i.v.
  Inhibition (Meth-A tumor growth): 49.2%
[2]
  LD50: 80 mg/kg

## C[S+](C)CCC1CCCO1 (centres unmarked) [Compound 29, ethylene(tetrahydro-2-furanyl)dimethylsulfonium p-toluenesulfonate]
[3]; 20 mg/kg/day oral
  Increase relative to control group (ear swelling): 26.0%
  Increase of swelling (× 10^-4): 44.8 ± 9.5 × 10^-4
[3]; 100 mg/kg/day oral
  Increase relative to control group (ear swelling): 35.3%
  Increase of swelling (× 10^-4): 47.9 ± 13.2 × 10^-4
[3]; 500 mg/kg/day oral
  Increase relative to control group (ear swelling): -11.6%
  Increase of swelling (× 10^-4): 31.3 ± 13.5 × 10^-4
[3]
  effect on the delayed hypersensitivity response (in words): augment the delayed hypersensitivity response
[4]; [7]
  Inhibition (fibrosarcoma growth): 66.7%
[5]; 0.4 mg/kg/day i.v.
  Inhibition (Meth-A tumor growth): 60.7%
[5]; 2.0 mg/kg/day i.v.
  Inhibition (Meth-A tumor growth): 69.8%
[5]; 10.0 mg/kg/day i.v.
  Inhibition (Meth-A tumor growth): 39.6%
[2]
  LD50: 131 mg/kg
